According to patent US20240101576A1, “HETEROCYCLIC INHIBITORS OF EGFR AND/OR HER2, FOR USE IN THE TREATMENT OF CANCER” (Scorpion Therapeutics, Inc., priority 2020, published 2024):

Key:
Format in all cases: cell-based
[1] = target: T1, EGFR exon 20 NPG Ins D770_N771 (Ba/F3 cells) (Homo sapiens, UniProt P00533, INS770NPG); experiment: Inhibitor activity on EGFR-dependent cell growth (CellTiter-Glo, 72 h), Ba/F3 EGFR exon 20 NPG Ins; conditions: read-out: BaF3 NPG IC50
T1 construct: expressed in transfected cells; host or cells: Ba/F3 (murine pro-B cells), retroviral transduction, puromycin selection, IL3-independent pool
T1 sequence (P00533 with tags, fused parts or gaps INS770NPG): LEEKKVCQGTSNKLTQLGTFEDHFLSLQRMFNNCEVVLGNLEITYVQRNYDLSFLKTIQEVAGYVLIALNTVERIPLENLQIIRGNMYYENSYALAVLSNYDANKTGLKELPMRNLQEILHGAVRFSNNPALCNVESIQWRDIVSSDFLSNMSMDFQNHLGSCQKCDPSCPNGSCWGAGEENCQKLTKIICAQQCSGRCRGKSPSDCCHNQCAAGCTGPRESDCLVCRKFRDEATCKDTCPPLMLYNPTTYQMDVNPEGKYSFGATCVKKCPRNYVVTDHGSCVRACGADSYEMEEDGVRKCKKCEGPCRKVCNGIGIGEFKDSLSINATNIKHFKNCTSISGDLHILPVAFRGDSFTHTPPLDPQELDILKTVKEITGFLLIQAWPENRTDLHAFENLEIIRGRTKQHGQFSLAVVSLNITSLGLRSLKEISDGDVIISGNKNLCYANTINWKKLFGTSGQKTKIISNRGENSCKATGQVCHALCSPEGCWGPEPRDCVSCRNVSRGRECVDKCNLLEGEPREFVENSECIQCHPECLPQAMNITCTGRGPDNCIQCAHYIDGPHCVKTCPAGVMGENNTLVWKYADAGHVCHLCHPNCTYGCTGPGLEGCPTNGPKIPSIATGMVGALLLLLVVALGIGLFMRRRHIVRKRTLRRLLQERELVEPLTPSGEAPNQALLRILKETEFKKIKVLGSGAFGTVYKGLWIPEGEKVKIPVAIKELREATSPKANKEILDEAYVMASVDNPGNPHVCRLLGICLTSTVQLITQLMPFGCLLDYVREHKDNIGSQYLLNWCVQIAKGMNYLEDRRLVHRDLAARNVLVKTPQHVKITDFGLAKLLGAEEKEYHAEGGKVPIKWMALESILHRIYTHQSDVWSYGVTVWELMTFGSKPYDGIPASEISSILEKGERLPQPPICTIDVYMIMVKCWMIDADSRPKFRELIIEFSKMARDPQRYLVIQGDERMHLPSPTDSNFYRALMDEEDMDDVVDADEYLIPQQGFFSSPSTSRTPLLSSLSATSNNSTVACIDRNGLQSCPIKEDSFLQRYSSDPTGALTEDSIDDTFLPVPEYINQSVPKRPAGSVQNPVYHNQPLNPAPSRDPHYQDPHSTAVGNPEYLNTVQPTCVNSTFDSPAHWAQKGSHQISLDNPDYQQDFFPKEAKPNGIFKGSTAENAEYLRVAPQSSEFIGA
Outline: (§1)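 IC50s derive from a sigmoidal dose–response fit of CellTiter-Glo signal. The signal was normalised between […]-treated cells and cell-free medium. Ba/F3 mutant-EGFR cells, seeded at 400–800/well depending on the line, had 72 h of exposure to a 10-point, 3-fold compound series.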

[2] = target: T2, EGFR exon 20 SVD Ins D770_N771 (Ba/F3 cells) (Homo sapiens, UniProt P00533, INS770SVD); experiment: Inhibitor activity on EGFR-dependent cell growth (CellTiter-Glo, 72 h), Ba/F3 EGFR exon 20 SVD Ins; conditions: read-out: BaF3 SVD IC50
T2 construct: expressed in transfected cells; host or cells: Ba/F3 (murine pro-B cells), retroviral transduction, puromycin selection, IL3-independent pool
T2 sequence (P00533 with tags, fused parts or gaps INS770SVD): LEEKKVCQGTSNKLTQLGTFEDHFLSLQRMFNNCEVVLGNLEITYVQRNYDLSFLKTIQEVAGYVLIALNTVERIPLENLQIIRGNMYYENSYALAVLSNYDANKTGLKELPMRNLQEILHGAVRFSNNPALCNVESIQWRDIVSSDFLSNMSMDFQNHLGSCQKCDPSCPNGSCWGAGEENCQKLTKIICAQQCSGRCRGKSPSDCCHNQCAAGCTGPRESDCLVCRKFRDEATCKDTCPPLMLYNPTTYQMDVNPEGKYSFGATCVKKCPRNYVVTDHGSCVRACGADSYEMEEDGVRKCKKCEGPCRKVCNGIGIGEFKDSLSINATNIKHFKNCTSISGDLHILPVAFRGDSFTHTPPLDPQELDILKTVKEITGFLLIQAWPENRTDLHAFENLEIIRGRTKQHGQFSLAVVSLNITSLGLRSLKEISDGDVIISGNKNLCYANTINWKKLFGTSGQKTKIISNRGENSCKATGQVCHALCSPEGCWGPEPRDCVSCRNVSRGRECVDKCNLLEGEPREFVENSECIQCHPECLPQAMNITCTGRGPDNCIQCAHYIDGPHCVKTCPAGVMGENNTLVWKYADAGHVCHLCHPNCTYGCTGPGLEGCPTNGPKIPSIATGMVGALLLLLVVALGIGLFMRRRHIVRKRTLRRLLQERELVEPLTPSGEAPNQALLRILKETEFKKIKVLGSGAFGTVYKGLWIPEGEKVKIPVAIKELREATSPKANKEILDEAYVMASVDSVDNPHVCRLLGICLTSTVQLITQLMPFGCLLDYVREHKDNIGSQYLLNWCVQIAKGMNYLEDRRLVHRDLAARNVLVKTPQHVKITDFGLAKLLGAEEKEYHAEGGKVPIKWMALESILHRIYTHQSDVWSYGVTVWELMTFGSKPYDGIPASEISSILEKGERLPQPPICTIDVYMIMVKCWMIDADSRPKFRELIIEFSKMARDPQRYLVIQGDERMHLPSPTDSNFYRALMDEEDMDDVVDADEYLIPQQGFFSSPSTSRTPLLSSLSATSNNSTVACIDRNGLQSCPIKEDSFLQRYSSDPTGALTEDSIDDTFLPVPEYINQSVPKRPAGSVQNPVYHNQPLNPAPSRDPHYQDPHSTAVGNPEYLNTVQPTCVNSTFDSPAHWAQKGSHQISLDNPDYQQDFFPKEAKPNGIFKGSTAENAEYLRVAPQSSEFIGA
Outline: as §1

[3] = target: T3, EGFR exon 20 ASV Ins V769_D770 (Ba/F3 cells) (Homo sapiens, UniProt P00533, INS769ASV); experiment: Inhibitor activity on EGFR-dependent cell growth (CellTiter-Glo, 72 h), Ba/F3 EGFR exon 20 ASV Ins; conditions: read-out: BaF3 ASV IC50
T3 construct: expressed in transfected cells; host or cells: Ba/F3 (murine pro-B cells), retroviral transduction, puromycin selection, IL3-independent pool
Outline: as §1

[4] = target: T4, EGFR WT (Ba/F3 cells) (Homo sapiens, UniProt P00533); experiment: Inhibitor activity on EGFR-dependent cell growth (CellTiter-Glo, 72 h), Ba/F3 EGFR WT; conditions: read-out: BaF3 WT IC50
T4 construct: expressed in transfected cells; host or cells: Ba/F3 (murine pro-B cells), retroviral transduction, puromycin selection, maintained with EGF
T4 sequence (P00533 25-1210): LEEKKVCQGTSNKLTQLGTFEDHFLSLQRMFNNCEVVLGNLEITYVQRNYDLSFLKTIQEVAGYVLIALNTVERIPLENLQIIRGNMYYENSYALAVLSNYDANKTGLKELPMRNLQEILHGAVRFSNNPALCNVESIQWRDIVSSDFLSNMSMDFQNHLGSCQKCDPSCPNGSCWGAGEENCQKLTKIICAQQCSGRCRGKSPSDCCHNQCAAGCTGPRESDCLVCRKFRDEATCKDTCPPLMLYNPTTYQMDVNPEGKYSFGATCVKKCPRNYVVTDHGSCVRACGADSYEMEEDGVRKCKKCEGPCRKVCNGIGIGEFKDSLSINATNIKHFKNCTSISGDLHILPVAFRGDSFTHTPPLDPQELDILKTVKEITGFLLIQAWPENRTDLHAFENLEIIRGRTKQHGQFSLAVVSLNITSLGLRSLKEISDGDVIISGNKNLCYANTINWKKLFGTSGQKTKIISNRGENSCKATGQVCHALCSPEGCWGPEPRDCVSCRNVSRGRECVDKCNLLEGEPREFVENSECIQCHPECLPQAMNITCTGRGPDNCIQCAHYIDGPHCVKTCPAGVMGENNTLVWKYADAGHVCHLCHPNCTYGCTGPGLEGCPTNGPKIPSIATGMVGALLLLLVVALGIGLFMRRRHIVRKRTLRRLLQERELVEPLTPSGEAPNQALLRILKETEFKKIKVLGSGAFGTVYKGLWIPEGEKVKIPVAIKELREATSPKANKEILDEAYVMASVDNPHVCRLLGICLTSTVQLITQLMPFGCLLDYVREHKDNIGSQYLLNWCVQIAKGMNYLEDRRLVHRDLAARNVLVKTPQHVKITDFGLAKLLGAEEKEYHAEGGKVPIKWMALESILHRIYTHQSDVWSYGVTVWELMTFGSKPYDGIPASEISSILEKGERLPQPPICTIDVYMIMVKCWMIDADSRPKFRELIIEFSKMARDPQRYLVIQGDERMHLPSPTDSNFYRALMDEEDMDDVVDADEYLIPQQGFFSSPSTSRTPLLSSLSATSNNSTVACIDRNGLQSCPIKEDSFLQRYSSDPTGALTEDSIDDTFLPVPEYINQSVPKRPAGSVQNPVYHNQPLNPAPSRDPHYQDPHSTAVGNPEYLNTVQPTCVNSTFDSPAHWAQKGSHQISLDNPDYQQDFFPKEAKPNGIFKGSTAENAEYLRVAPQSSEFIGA
Outline: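 This growth assay used Ba/F3 cells that depend on wild-type EGFR and are kept in EGF without IL3. Compounds were made up as 10 mM DMSO stocks and diluted 3-fold over 10 points. 120 nL went onto 600 cells/well. After 72 hours, 40 μL CellTiter-Glo was added and luminescence read on EnVision after 30 min.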

[5] = target: T5, EGFR exon 20 FQEA Ins A763_V764 (Ba/F3 cells) (Homo sapiens, UniProt P00533, INS763FQEA); experiment: Inhibitor activity on EGFR-dependent cell growth (CellTiter-Glo, 72 h), Ba/F3 EGFR exon 20 FQEA Ins; conditions: read-out: BaF3 FQEA IC50
T5 construct: expressed in transfected cells; host or cells: Ba/F3 (murine pro-B cells), retroviral transduction, puromycin selection, IL3-independent pool
T5 sequence (P00533 with tags, fused parts or gaps INS763FQEA): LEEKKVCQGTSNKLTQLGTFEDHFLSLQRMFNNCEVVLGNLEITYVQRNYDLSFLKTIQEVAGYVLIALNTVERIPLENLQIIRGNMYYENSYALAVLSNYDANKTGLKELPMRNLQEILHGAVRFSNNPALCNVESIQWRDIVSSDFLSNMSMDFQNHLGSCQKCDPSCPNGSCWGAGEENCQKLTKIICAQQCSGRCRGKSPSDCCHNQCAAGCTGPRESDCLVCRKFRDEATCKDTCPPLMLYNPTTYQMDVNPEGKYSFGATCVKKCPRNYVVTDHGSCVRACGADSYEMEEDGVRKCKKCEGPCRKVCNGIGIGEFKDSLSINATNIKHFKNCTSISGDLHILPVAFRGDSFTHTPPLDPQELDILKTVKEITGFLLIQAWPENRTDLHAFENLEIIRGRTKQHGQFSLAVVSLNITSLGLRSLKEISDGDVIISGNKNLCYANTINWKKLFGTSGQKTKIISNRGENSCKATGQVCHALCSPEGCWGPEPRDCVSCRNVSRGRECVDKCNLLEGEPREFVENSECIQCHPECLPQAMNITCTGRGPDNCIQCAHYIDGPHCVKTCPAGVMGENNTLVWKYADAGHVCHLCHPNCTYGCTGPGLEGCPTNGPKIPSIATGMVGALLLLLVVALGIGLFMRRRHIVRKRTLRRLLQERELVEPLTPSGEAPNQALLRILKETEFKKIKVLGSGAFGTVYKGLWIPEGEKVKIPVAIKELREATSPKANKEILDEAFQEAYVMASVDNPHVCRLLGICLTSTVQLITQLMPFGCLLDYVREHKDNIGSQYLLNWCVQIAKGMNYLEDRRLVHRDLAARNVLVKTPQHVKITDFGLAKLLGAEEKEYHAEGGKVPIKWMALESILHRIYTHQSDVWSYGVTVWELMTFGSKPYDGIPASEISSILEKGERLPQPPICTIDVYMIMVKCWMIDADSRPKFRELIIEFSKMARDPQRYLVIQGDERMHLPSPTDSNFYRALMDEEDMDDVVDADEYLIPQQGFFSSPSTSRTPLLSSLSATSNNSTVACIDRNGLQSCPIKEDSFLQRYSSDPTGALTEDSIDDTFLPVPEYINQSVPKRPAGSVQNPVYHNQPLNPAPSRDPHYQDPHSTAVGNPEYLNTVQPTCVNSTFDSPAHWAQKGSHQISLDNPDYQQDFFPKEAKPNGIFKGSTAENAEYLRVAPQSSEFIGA
Outline: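 Compounds, serially diluted 3-fold over 10 points in DMSO and added at 120 nL per well, act on Ba/F3 EGFR-mutant cells for 72 h. Seeding is 800 (exon 19del, FQEA), 600 (L858R/C797S) or 400 (L858R) cells/well. CTG luminescence is fitted with a four-parameter logistic curve to give IC50.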

Row | SMILES | IC50 [1] [nM] | IC50 [2] [nM] | IC50 [3] [nM] | IC50 [4] [nM] | IC50 [5] [nM]
1 | COc1c(Nc2c(-c3ccnc(N)n3)[nH]c3c2C(=O)NCC3)ccc(F)c1Cl [compound 713, 2-(2-aminopyrimidin-4-yl)-3-[(3-chloro-4-fluoro-2-methoxyphenyl)amino]-1H,5H,6H,7H-pyrrolo[3,2-c]pyridin-4-one] | 100 to 1000 | 100 to 1000 | 100 to 1000 | > 1000 | > 1000
2 | COc1c(Cl)cccc1Nc1c(-c2ccnc(NC[C@@H]3CCO3)n2)[nH]c2c1C(=O)NCC2 [compound 719] | 100 to 1000 | > 1000 | 100 to 1000 | > 1000 | > 1000
3 | COc1c(Cl)cccc1Nc1c(-c2ccnc3ccc(OCCN(C)C)nc23)[nH]c2c1C(=O)NCC2 [compound 736, 3-[(3-chloro-2-methoxyphenyl)amino]-2-[6-[2-(dimethylamino)ethoxy]-1,5-naphthyridin-4-yl]-1H,5H,6H,7H-pyrrolo[3,2-c] pyridin-4-one; formic acid] | 100 to 1000 | < 100 | < 100 | 100 to 1000 | 100 to 1000
4 | COc1c(Cl)cccc1Nc1c(-c2ccnc3ccc(O[C@H]4CCCOC4)nc23)[nH]c2c1C(=O)NCC2 [compound 741, 3-[(3-chloro-2-methoxyphenyl)amino]-2-[6-[(3S)-oxan-3-yloxy]-1,5-naphthyridin-4-yl]-1H,5H,6H,7H-pyrrolo[3,2-c]pyridin-4-one; formic acid] | < 100 | < 100 | < 100 | < 100 | < 100
5 | COc1c(Cl)cccc1Nc1c(-c2ccnc3ccc(O[C@@H]4CCCOC4)nc23)[nH]c2c1C(=O)NCC2 [compound 742, 3-[(3-chloro-2-methoxyphenyl)amino]-2-[6-[(3R)-oxan-3-yloxy]-1,5-naphthyridin-4-yl]-1H,5H,6H,7H-pyrrolo[3,2-c]pyridin-4-one; formic acid] | < 100 | < 100 | < 100 | 100 to 1000 | < 100
6 | COc1c(Cl)cccc1Nc1c(-c2ccnc3ccc(O[C@@H]4CCOC4)nc23)[nH]c2c1C(=O)NCC2 [compound 743, 3-[(3-chloro-2-methoxyphenyl)amino]-2-[6-[(3R)-oxolan-3-yloxy]-1,5-naphthyridin-4-yl]-1H,5H,6H,7H-pyrrolo[3,2-c]pyridin-4-one] | < 100 | < 100 | < 100 | 100 to 1000 | < 100
7 | CCO[C@H](C)c1ccc2nccc(-c3[nH]c4c(c3Nc3cccc(Cl)c3OC)C(=O)NCC4)c2n1 [compound 753, 3-[(3-chloro-2-methoxyphenyl)amino]-2-[6-[(1R)-1-ethoxyethyl]-1,5-naphthyridin-4-yl]-1H,5H,6H,7H-pyrrolo[3,2-c]pyridin-4-one; trifluoroacetic acid] | < 100 | < 100 | < 100 | < 100 | < 100
8 | COc1c(Cl)cccc1Nc1c(-c2ccnc3ccc(OCC4(C(F)(F)F)CC4)nc23)[nH]c2c1C(=O)NCC2 [compound 758, 3-[(3-chloro-2-methoxyphenyl)amino]-2-(6-[[1-(trifluoromethyl)cyclopropyl]methoxy]-1,5-naphthyridin-4-yl)-1H,5H,6H,7H-pyrrolo[3,2-c]pyridin-4-one] | 100 to 1000 | 100 to 1000 | 100 to 1000 | 100 to 1000 | 100 to 1000
9 | CCOc1ccc2nccc(-c3[nH]c4c(c3Nc3cccc(Cl)c3OC)C(=O)NCC4)c2n1 [compound 761, 3-[(3-chloro-2-methoxyphenyl)amino]-2-(6-ethoxy-1,5-naphthyridin-4-yl)-1H,5H,6H,7H-pyrrolo[3,2-c]pyridin-4-one] | < 100 | < 100 | < 100 | < 100 | < 100
10 | COc1c(Cl)cccc1Nc1c(-c2ccnc3ccc(OCC(F)(F)F)nc23)[nH]c2c1C(=O)NCC2 [compound 763, 3-[(3-chloro-2-methoxyphenyl)amino]-2-[6-(2,2,2-trifluoroethoxy)-1,5-naphthyridin-4-yl]-1H,5H,6H,7H-pyrrolo[3,2-c]pyridin-4-one] | 100 to 1000 | < 100 | < 100 | 100 to 1000 | 100 to 1000

Further lines, results first:

Row | IC50 [1] [nM] | IC50 [2] [nM] | IC50 [3] [nM] | IC50 [4] [nM] | IC50 [5] [nM] | SMILES
11 | < 100 | < 100 | < 100 | < 100 | < 100 | COc1c(Cl)cccc1Nc1c(-c2ccnc3ccc(OC4COC4)nc23)[nH]c2c1C(=O)NCC2 [compound 732, 3-[(3-chloro-2-methoxyphenyl)amino]-2-[6-(oxetan-3-yloxy)-1,5-naphthyridin-4-yl]-1H,5H,6H,7H-pyrrolo[3,2-c]pyridin-4-one]
12 | < 100 | < 100 | < 100 | 100 to 1000 | < 100 | COc1c(Cl)cccc1Nc1c(-c2ccnc3ccc(OC[C@H]4CCO4)nc23)[nH]c2c1C(=O)NCC2 [compound 734, 3-[(3-chloro-2-methoxyphenyl)amino]-2-[6-[(2R)-oxetan-2-ylmethoxy]-1,5-naphthyridin-4-yl]-1H,5H,6H,7H-pyrrolo[3,2-c]pyridin-4-one]
13 | < 100 | < 100 | < 100 | 100 to 1000 | < 100 | COc1c(Cl)cccc1Nc1c(-c2ccnc3ccc(OC[C@@H]4CCO4)nc23)[nH]c2c1C(=O)NCC2 [compound 735, 3-[(3-chloro-2-methoxyphenyl)amino]-2-[6-[(2S)-oxetan-2-ylmethoxy]-1,5-naphthyridin-4-yl]-1H,5H,6H, 7H-pyrrolo[3,2-c]pyridin-4-one]
14 | < 100 | < 100 | < 100 | 100 to 1000 | < 100 | COc1c(Cl)cccc1Nc1c(-c2ccnc3ccc(OCC4COC4)nc23)[nH]c2c1C(=O)NCC2 [compound 737, 3-[(3-chloro-2-methoxyphenyl)amino]-2-[6-(oxetan-3-ylmethoxy)-1,5-naphthyridin-4-yl]-1H,5H,6H,7H-pyrrolo[3,2-c] pyridin-4-one]
15 | < 100 | < 100 | < 100 | 100 to 1000 | 100 to 1000 | COc1c(Cl)cccc1Nc1c(-c2ccnc3ccc(OCC4CN(C)C4)nc23)[nH]c2c1C(=O)NCC2 [compound 738, 3-[(3-chloro-2-methoxyphenyl)amino]-2-[6-[(1-methylazetidin-3-yl)methoxy]-1,5-naphthyridin-4-yl]-1H,5H,6H,7H-pyrrolo[3,2-c]pyridin-4-one]
16 | < 100 | < 100 | < 100 | 100 to 1000 | 100 to 1000 | COc1c(Cl)cccc1Nc1c(-c2ccnc3ccc(O[C@H]4CCOC4)nc23)[nH]c2c1C(=O)NCC2 [compound 739, 3-[(3-chloro-2-methoxyphenyl)amino]-2-[6-[(3S)-oxolan-3-yloxy]-1,5-naphthyridin-4-yl]-1H,5H,6H,7H-pyrrolo[3,2-c]pyridin-4-one]
